{"source": "patent US4954156A", "about": "“N,N-dihalo-2-imidazolidinones and N-halo-2-oxazolidinones as urease and nitrification inhibitors” (Tennessee Valley Authority, priority 1989, dated 1990)", "key": {"[1]": {"target": "purified Jack Bean urease (Canavalia ensiformis, UniProt P07374)", "sequence (P07374 whole entry, looked up)": "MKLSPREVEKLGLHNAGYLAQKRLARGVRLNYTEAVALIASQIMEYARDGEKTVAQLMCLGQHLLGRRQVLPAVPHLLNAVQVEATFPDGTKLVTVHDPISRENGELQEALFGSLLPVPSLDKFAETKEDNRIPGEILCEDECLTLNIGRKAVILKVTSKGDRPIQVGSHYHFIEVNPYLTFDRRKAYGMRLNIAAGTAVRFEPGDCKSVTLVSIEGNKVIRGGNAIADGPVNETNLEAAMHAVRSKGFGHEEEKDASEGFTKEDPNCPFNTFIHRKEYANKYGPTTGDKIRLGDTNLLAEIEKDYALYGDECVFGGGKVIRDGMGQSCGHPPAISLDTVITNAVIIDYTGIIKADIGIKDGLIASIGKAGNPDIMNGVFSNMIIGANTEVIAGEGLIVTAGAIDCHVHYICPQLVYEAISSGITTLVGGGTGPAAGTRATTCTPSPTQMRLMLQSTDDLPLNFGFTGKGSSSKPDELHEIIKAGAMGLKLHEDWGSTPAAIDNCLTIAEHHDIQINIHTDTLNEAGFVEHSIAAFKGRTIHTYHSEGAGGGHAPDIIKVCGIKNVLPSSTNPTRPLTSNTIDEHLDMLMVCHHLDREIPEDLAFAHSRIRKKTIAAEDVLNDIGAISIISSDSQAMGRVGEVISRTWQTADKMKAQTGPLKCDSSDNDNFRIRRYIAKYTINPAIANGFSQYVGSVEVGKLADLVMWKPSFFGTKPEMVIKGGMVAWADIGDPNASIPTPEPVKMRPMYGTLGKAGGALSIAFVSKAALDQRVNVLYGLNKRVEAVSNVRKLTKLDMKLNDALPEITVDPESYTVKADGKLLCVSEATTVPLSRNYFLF", "assay": "Aqueous system (pH stat) urease inhibition test", "assay_type": "biochemical", "conditions": "25° C", "experimental": "(§1) Embodiment 1: Urease activity of inhibitor test compounds may be evaluated either in aqueous or in soil systems. When aqueous systems are used, urea plus a test compound with possible urease inhibition activity and relatively pure urease enzyme are incubated together to determine the effects of the test compound on urease-catalyzed hydrolysis of urea. When soil systems are used, urea and the test compound are added to moist soil, and the urease enzyme is supplied from the soil. The main disadvantage of using soil systems is that the true activity of test compounds may be masked because of reactions between the test compound and soil. Thus, basic studies for understanding chemical structure-activity relationships are usually done in aqueous systems.\nAqueous System (pH Stat) Test Procedure: The aqueous system urease inhibition tests were conducted at 25° C using purified Jack Bean urease enzyme, 50,000-80,000 units per gram, a unit of urease will liberate 1 umole of NH3 from urea per minute at pH 7.0 at 25° C.\nAn appropriate amount of inhibitor [such as 37.0 uL (microliters) of a 1.169×10^(-3) M (moles/liter) inhibitor solution] and 100 uL of a solution of 13.9130 mg Jack Bean urease enzyme in 10.00 mL of water were diluted to 25.00 mL. This combined solution was allowed to sit undisturbed at 23° C. for twenty (20) minutes. Then 20.0 uL of a preservative solution was added to prevent degradation of the urease enzyme during the course of the experiment. The preservative solution contained 5.655×10^-4 moles/liter ethylenediaminetetraacetic acid (disodium salt) and 1.166×10^-3) moles/liter dithiothreitol.\nImmediately after the addition of the preservative solution to the inhibitor/urease solution, 800 uL of a 0.1246 M urea solution was added and a computer assisted titrimeter was started. This titrimeter maintained a constant pH of 6.97 during the course of the experiment by neutralizing the ammonia (resulting from urease hydrolysis of urea) with 0.01142 M hydrochloric acid (HCl). The volume (measured to 0.001 mL) of HCl added was automatically recorded every 15 seconds for up to 20.0 minutes or until a total volume of 2.500 mL of HCl was added.\nExperiments also were conducted without inhibitor (blank) and with the inhibitor PPDA for comparison. The experiments were replicated, and the percent inhibition for each of the inhibitors at the various concentrations was calculated as follows:\n% inhibition=(kinhibitor /kblank)×100 (4)\nwhere kinhibitor and kblank are the average rates of HCl addition for the inhibitor and blank experiments, respectively. The rates of HCl addition were calculated by linear regression of the titration curves."}, "[2]": {"system": "nitrification of ammonium nitrogen in soil", "assay": "Soil nitrification inhibition test (Mountainview silt loam, banded)", "conditions": "for percent nitrification inhibition: separate experiment (Examples VII, IX): sampled only at end of 5-week incubation, no dicyandiamide comparison; for % inhibition (nitrification) / Net mg NO2N / Net mg NO3N: 25° C, 410 mg urea + 41 mg inhibitor", "experimental": "Embodiment 2: The N-Halamine compounds were tested for nitrification inhibition using the soil testing procedure described below.\nMountainview silt loam soil was screened through a 2 mm sieve. Plexiglas containers (8×8×6 cm) were packed half full with the soil and packed to a bulk density of 1.0 g/cm^3 and wetted to field capacity (approximately 20 weight percent moisture). The urea 410 mg per container) and inhibitor (41 mg per container) were added in a narrow band (0.5 cm wide X 6 cm long), and additional soil was added to fill the containers. The total amount of dry soil added was 384 g. The containers were incubated at 25° C. During incubation the containers were checked periodically for moisture loss and additional water added as needed to maintain moisture levels.\nThe individual containers were removed from the incubator at 1, 2, 3, 4, and 5 week intervals. After removal from the incubator the contents of the container were transferred to a plastic bag and thoroughly mixed. A 10-g sample of soil (dry basis) was taken from the bag and extracted with 100 ml of 2 N KCL. The extract was filtered through Whatman #41 filter paper and refrigerated until analyzed. Samples were analyzed for NO3-N- NO2-N- and urea-N using a colorimetric procedure. Some samples also were analyzed for NH4-N.\nThe percent nitrification inhibition was calculated according to the method of Bundy and Bremner [G. L. Bundy and J. M. Bremner, Soil Sci. Soc. Am. Proc. 37, 396-398 (1973)]\n% nitrification inhibition=[(C-S)/C]×100\nwhere C=net amount of NO3-N produced in the control (no inhibitor added), and S=net amount of NO3-N produced in the inhibitor treated sample.\n^a Concentrations are in net mg/container. All containers had 384 g\nsoil (dry), 410 mg urea (188.6 mg N) and 41 mg inhibitor. Samples were\nextracted 10 g → 100 mls 2N KCl. The formulas used for calculation\nwhere C = net NO3N produced in control (no inhibitor), S = net\nNO3N produced in inhibitor treated sample, net NO3N =\n(NO3N) - (soil NO3N), and net NO2N = (NO2N) - (soil\nNO2N). Values are averages of two replicate samples."}, "[3]": {"system": "soil urease (urease-active Hastings silt loam soil)", "assay": "Banded soil system urease inhibition test (Hastings silt loam)", "conditions": "410 mg urea + 41 mg inhibitor", "experimental": "as §1\nSoil System Test Procedure: The soil system test procedure used was a modification of the previous procedures of other researchers L. A. Douglas and J. M. Bremner, Soil Biol. Biochem. 3, 309-315 (1971) and J. M. Bremner and R. L. Mulvaney, \"Urease Activity in Soils,\" Soil Enzymes 5, R. G. Burns, editor, Academic Press, 149-195 (1978)]. In this modified procedure powdered mixtures of urea and test compounds were applied in narrow bands in the soil rather than being mixed throughout the soil. The banded configuration also results in concentration gradients of urea, urea hydrolysis products, test compounds, and test compound decomposition products similar to those in the immediate vicinity of urea granules containing the test compounds. Another advantage of the banded configuration compared with mixing throughout the soil is that slightly soluble test compounds can be easily band applied, whereas it is difficult to achieve a known degree of mixing of a small quantity of slightly soluble test compound with soil. The banded configuration also enables testing for urease inhibition under realistic soil conditions prior to the development of techniques for cogranulating a wide range of test compounds with urea.\nA detailed description of the banded soil testing procedure follows. Urease-active soil (Hastings silt loam) was moistened to a moisture content of 20 percent dry weight basis) and preincubated at room temperature for two days. Plexiglas containers (6×6×6 cm) were half filled with soil and packed to a bulk density of 1.0 g/cm . Urea (410 mg) or urea (410 mg) plus inhibitor (41 mg, thoroughly mixed with the urea) was distributed in a narrow band about 0.5 cm wide and 6 cm long on the soil surface. The containers then were filled with soil, again packing to a bulk density of 1.0 g/cm^3. The containers were incubated at 25° C. for the desired reaction period, after which the containers were frozen to about -5° C. to stop urea hydrolysis. Immediately prior to extracting the remaining urea from the soil, said soil was allowed to thaw. Soil from each container was thoroughly mixed, and a 10-g sample was extracted with 100 ml of 2 M KCl containing phenylmercuric acetate to prevent urea hydrolysis during handling [L. A. Douglas and J. M. Bremner, Soil. Sci. Soc. Am. Proc. 34, 859-862 (1970)]. Urea in the extracts was determined colorimetrically as a measure of unhydrolyzed urea and the results expressed as percent unhydrolyzed urea-N.\n^a The plexiglas containers measured 6 × 6 × 6 cm.\nHastings silt loam soil was utilized and packed to a bulk density of 1\ngm/cm^3 dry basis. The soil was wet to near field capacity (20%\nmoisture) and 260 g of wetted soil (216 g dry soil) was added per\ncontainer. The containers were packed half full, urea and inhibitor were\nadded, and the remaining soil was added. The amount of urea added = 410 m"}}, "note": "“And” between values parts separate entries of the source, which are not always exact repeats. Identical values can stand only once.", "data": [{"compound": "CC1(C)N(Cl)C(=O)N(Cl)C1(C)C", "note": "[A, 1,3-dichloro-4,4,5,5-tetramethyl-2-imidazolidinone]", "values": [{"measurement": "% urease inhibition", "setting": "[1]; inhibitor 1.440 x 10^-8 moles/experiment", "result": 86, "unit": "%"}, {"measurement": "% urease inhibition", "setting": "[1]; inhibitor 2.160 x 10^-8 moles/experiment", "result": 95, "unit": "%"}, {"measurement": "% urease inhibition", "setting": "[1]; inhibitor 4.320 x 10^-8 moles/experiment", "result": 100, "unit": "%"}, {"measurement": "percent nitrification inhibition", "setting": "[2]", "result": 41.8, "unit": "%"}]}, {"compound": "CC1(C)N(Cl)C(=O)N(Br)C1(C)C", "note": "[ABC, 1-bromo-3-chloro-4,4,5,5-tetramethyl-2-imidazolidinone]", "values": [{"measurement": "% urease inhibition", "setting": "[1]; inhibitor 0.432 x 10^-8 moles/experiment", "result": 93, "unit": "%"}, {"measurement": "% urease inhibition", "setting": "[1]; inhibitor 1.430 x 10^-8 moles/experiment", "result": 100, "unit": "%"}, {"measurement": "% unhydrolyzed urea-N", "setting": "[3]; 3 days incubation at 25° C", "result": "84.71% and 84.7%"}, {"measurement": "PPM urea-N", "setting": "[3]; 3 days incubation at 25° C", "result": 75.0, "unit": "PPM"}, {"measurement": "% unhydrolyzed urea-N", "setting": "[3]; 6 days incubation at 25° C", "result": "53.65% and 53.7%"}, {"measurement": "PPM urea-N", "setting": "[3]; 6 days incubation at 25° C", "result": 47.5, "unit": "PPM"}, {"measurement": "% inhibition (nitrification)", "setting": "[2]; 1 week", "result": 100.0, "unit": "%"}, {"measurement": "Net mg NO2N", "setting": "[2]; 1 week", "result": -0.05, "unit": "mg/container"}, {"measurement": "Net mg NO3N", "setting": "[2]; 1 week", "result": 0.0, "unit": "mg/container"}, {"measurement": "% inhibition (nitrification)", "setting": "[2]; 2 weeks", "result": 100.0, "unit": "%"}, {"measurement": "Net mg NO2N", "setting": "[2]; 2 weeks", "result": 0.04, "unit": "mg/container"}, {"measurement": "Net mg NO3N", "setting": "[2]; 2 weeks", "result": 0.0, "unit": "mg/container"}, {"measurement": "% inhibition (nitrification)", "setting": "[2]; 3 weeks", "result": 100.0, "unit": "%"}, {"measurement": "Net mg NO2N", "setting": "[2]; 3 weeks", "result": 0.08, "unit": "mg/container"}, {"measurement": "Net mg NO3N", "setting": "[2]; 3 weeks", "result": 0.0, "unit": "mg/container"}, {"measurement": "% inhibition (nitrification)", "setting": "[2]; 4 weeks", "result": 100.0, "unit": "%"}, {"measurement": "Net mg NO2N", "setting": "[2]; 4 weeks", "result": 1.68, "unit": "mg/container"}, {"measurement": "Net mg NO3N", "setting": "[2]; 4 weeks", "result": 0.0, "unit": "mg/container"}, {"measurement": "% inhibition (nitrification)", "setting": "[2]; 5 weeks", "result": 99.6, "unit": "%"}, {"measurement": "Net mg NO2N", "setting": "[2]; 5 weeks", "result": 1.67, "unit": "mg/container"}, {"measurement": "Net mg NO3N", "setting": "[2]; 5 weeks", "result": 0.8, "unit": "mg/container"}, {"measurement": "Nitrite accumulation in the soil", "setting": "[2]; during the 5 weeks incubation, greater than with dicyandiamide", "result": "well within plant tolerance levels"}, {"measurement": "percent nitrification inhibition", "setting": "[2]", "result": 85.6, "unit": "%"}]}, {"compound": "NP(N)(=O)Oc1ccccc1", "note": "[PPDA, Phenyl phosphorodiamidate, reference compound]", "values": [{"measurement": "% urease inhibition", "setting": "[1]; inhibitor 0.108 x 10^-8 moles/experiment", "result": 99, "unit": "%"}, {"measurement": "% urease inhibition", "setting": "[1]; inhibitor 0.216 x 10^-8 moles/experiment", "result": 100, "unit": "%"}, {"measurement": "% unhydrolyzed urea-N", "setting": "[3]; 3 days incubation at 25° C", "result": "94.31% and 94.3%"}, {"measurement": "PPM urea-N", "setting": "[3]; 3 days incubation at 25° C", "result": 83.5, "unit": "PPM"}, {"measurement": "% unhydrolyzed urea-N", "setting": "[3]; 6 days incubation at 25° C", "result": "58.73% and 58.7%"}, {"measurement": "PPM urea-N", "setting": "[3]; 6 days incubation at 25° C", "result": 52, "unit": "PPM"}]}]}
